Test results taken from patent US7056679B2, “Target specific screening and its use for identifying target binders” (Antyra, Inc., priority 2001, dated 2006).

Legend:
E-tag antibody = experiment: ELISA analysis of phage on antibody raised against ETAG (positive control); details: peptide binding to E-tag antibody; phage ELISA units read at 405 nm
Method in brief: (§1)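 Phage from picked clones (M13KO7 helper) bound 2 hr at room temperature to wells coated overnight at 4 °C with 500 ng/well anti-ETAG antibody or LDH, milk-blocked. Detection with HRP-anti-M13 (1:3000) and ABTS at 405 nm; positive when A405 ≥2-fold over background.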

[1] = tested on: lactate dehydrogenase (LDH); experiment: ELISA analysis of phage on LDH (irrelevant, non-specific target); assay type: binding; details: peptide binding to LDH polypeptide (non-specific binding); phage ELISA units read at 405 nm
Method in brief: as §1

DGI-2 = molecular target: T1, DGI-2 (Homo sapiens, UniProt Q15004); experiment: ELISA analysis of phage on DGI-2 polypeptide (specific binding); details: for DGI-2 (OD): binding to DGI-2 polypeptide (specific binding), phage ELISA units read at 405 nm; for DGI-2/LDH (OD): ratio of specific binding to non-specific binding
T1 construct: encompassed the entire DGI-2 open reading frame (ORF); His-tag of vector pIVEX2.3-MCS (inferred from the vector and from the reverse primer lacking a stop codon); made in house; host or cells: cell-free in vitro translation (Rapid Translation System RTS, Roche; E. coli lysate)
T1 sequence (Q15004 1-111): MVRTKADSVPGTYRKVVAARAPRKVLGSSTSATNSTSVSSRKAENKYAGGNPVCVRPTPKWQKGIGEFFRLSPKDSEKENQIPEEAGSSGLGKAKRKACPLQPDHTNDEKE
Method in brief: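 Recombinant DGI-2 from in vitro translation, LDH (non-specific) and controls were coated at 500 ng/well and blocked with 2% milk-PBS. Phage from individual clones bound for 2 hr at room temperature, then anti-M13-HRP with ABTS was read at 405 nm; a clone counted as positive at ≥2-fold over background.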

Substance | ETAG (OD) (E-tag antibody) | LDH (OD) [1] | DGI-2 (OD) (DGI-2) | DGI-2/LDH (OD) (DGI-2)
DGKHLTKWSGRGWWSAWVGG (DGI-2-20R-3-B12; listed as Escherichia coli) | 15.5 OD | 1.0 OD | 5.7 OD | 5.5
LVIQCSASVVACDLYWNYVGCLAAG (DGI-2-20C-3-D12; listed as Escherichia coli) | 3.6 OD | 1.0 OD | 1.1 OD | 1.1
QLDCLVWGLPGLRCDRPLEQ (DGI-2-20R-3-B10; listed as Escherichia coli) | 17.0 OD | 1.0 OD | 7.8 OD | 7.6
RPVVCLAGLTLAQFGWVFPGWRGWS (DGI-2-20C-3-C1039; listed as Escherichia coli) | 11.8 OD | 1.0 OD | 4.7 OD | 4.7
FGRDGDGIQRRQGGFSWVGDR (DGI-2-20F-PP-E2; listed as Escherichia coli) | 11.6 OD | 0.7 OD | 1.7 OD | 2.4
WAGSTDLWQLWSLWVKPELR (DGI-2-20F-3-B7; listed as Escherichia coli) | 16.4 OD | 0.9 OD | 1.6 OD | 1.6
GGGRESWGGGWFMGWGSGAG (DGI-2-20R-3-A6; listed as Escherichia coli) | 17.7 OD | 1.0 OD | 5.8 OD | 5.9
GLYRRAGDASVGFSRWGREDCQVYFSVECLLGSSWGGYS (GLYRRAGDASVGFSRWGRFDCQVYFSVECLLGSSWGGYS; DGI-2-40F-4-F12; listed as Escherichia coli) | 8.7 OD | 0.9 OD | 2.2 OD | 2.5
DYKGRTMTSPIMSALPVYDRLHGIGSRGQNMD (DYKGRTMTSPIMSALPVYDRLHGAIGSRGQNMD; DGI-2-20C-3-B3; listed as Escherichia coli) | 7.7 OD | 0.9 OD | 0.8 OD | 0.9
PAMGHCMQVLGPVLEGRSRDQVGR (DGI-2-20R-4-G6; listed as Escherichia coli) | 11.5 OD | 1.1 OD | 1.6 OD | 1.4
LFSATGCALMSGFCLGSDGS (DGI-2-20R-3-C1; listed as Escherichia coli) | 14.0 OD | 1.0 OD | 8.2 OD | 8.3
VSGY#SLWWCGPGWGPRSGR (VSGYSLWWCGPGWGPRSGR; DGI-2-20F-PP-H11; listed as Escherichia coli) | 2.1 OD | 0.8 OD | 1.6 OD | 2.0
VVRQGCMAFSGLCSGVTESE (DGI-2-20R-3-C8; listed as Escherichia coli) | 21.1 OD | 1.1 OD | 5.6 OD | 5.3
RWSLPAYLCRFVSQASCNSR (DGI-2-20R-3-C12; listed as Escherichia coli) | 14.6 OD | 1.0 OD | 1.6 OD | 1.6
SAFGCPLPRALGGGGARFYA (DGI-2-20F-PP-E11; listed as Escherichia coli) | 15.2 OD | 0.9 OD | 2.0 OD | 2.2
RSIRLQLIDEACQFFDGLCT (DGI-2-20R-3-A8; listed as Escherichia coli) | 15.3 OD | 1.1 OD | 6.9 OD | 6.4

Substance | ETAG (OD) (E-tag antibody) | LDH (OD) [1] | DGI-2 (OD) (DGI-2) | DGI-2/LDH (OD) (DGI-2)
LSVFRPGQFPHVGARGVSRT (DGI-2-20R-4-G32; listed as Escherichia coli) | 11.0 OD | 1.1 OD | 1.4 OD | 1.2
VWRDWVNGTVGLRNREKPGV (DGI2-20R-3-A5; listed as Escherichia coli) [DGI-2-20R-3-A5] | 14.9 OD | 1.1 OD | 10.9 OD | 9.8
DVGAVVRSGHCASRPGE*QVR (DVGAVVRSGHCASRPGEQVR; DGI-2-20F-PP-H9; listed as Escherichia coli) | 13.6 OD | 1.1 OD | 1.6 OD | 1.5
DQRVVGSGWFERLRNWYDRA (DGI-2-20R-4-G99; listed as Escherichia coli) | 14.1 OD | 1.0 OD | 7.5 OD | 7.2
GRWDGWEVCGIWGADDCASG (DGI-2-20R-4-H1; listed as Escherichia coli) | 14.0 OD | 1.2 OD | 9.3 OD | 7.8
GLEPVPFQTDKRIAMGWTREWLVNGYGAAHRRDARMQSGH (DGI-2-40F-3-D6; listed as Escherichia coli) | 11.4 OD | 1.0 OD | 2.5 OD | 2.6
LWRRWSEGQLLGDGELRGDG (DGI-2-20R-3-B52; listed as Escherichia coli) | 15.8 OD | 1.0 OD | 8.7 OD | 8.4
LLLPVRWRDAQPRSLLMEWI (DGI-2-20F-PP-F8; listed as Escherichia coli) | 7.6 OD | 1.1 OD | 2.0 OD | 1.9
GGSLPVKSGQLVTCCTSKGG (DGI-2-20F-PP-F5; listed as Escherichia coli) | 16.3 OD | 0.9 OD | 2.3 OD | 2.5
SWACGLLWPGECGSQVARRG (DGI-2-20R-3-D127; listed as Escherichia coli) | 15.4 OD | 1.0 OD | 6.7 OD | 6.4
TVKFQGVVQERSRIAGFRYCGDHAVSWGLAGCPALRDKLQ (DGI-2-40F-3-C424; listed as Escherichia coli) | 14.8 OD | 1.1 OD | 5.5 OD | 5.2
EGNWFCAVFRGFCVGDRGPE (DGI-2-20R-3-A1; listed as Escherichia coli) | 11.1 OD | 1.1 OD | 7.1 OD | 6.3
TIDVARRFGYGWWDLWLDGD (DGI-2-20R-3-C3; listed as Escherichia coli) | 20.2 OD | 1.1 OD | 7.9 OD | 7.0
TFTRDVAGPAVSFVRLHSWN (DGI-2-20F-PP-A9; listed as Escherichia coli) | 40.8 OD | 1.2 OD | 2.7 OD | 2.3
SRPGWCSRGTAWGFPGCSSS (DGI-2-20R-3-C4; listed as Escherichia coli) | 19.1 OD | 1.1 OD | 4.5 OD | 4.2
